According to ChEMBL document CHEMBL3507680, “University of Dundee, Gates Library screen for HepG2 cell viability”:

Assay: Human HepG2 cell viability assay in 384 well format
Assay type: toxicity, cell-based
Set-up: dose 125 nL, time 70.5 hour; cytotoxicity at 70.5 h: concentration not given beside the values
Details: HepG2 cells, read-out: Inhibition

CCc1ccc(C(=O)NC2CCN(c3cnn(C)c3)C2=O)o1 (stereo not given)
cytotoxicity at 70.5 h: -9%

CCC(CC)c1cc(CNC(=O)N2CCOC(C)C2)on1 (stereo not given)
cytotoxicity at 70.5 h: -9.44%

O=C1CC2(CCCCC2)CC(=O)N1CC(O)COCc1ccc(Cl)cc1 (stereo not given)
cytotoxicity at 70.5 h: -6.34%

CCOC(=O)NC(CNC(=O)CCc1ccccn1)CC(C)C (stereo not given)
cytotoxicity at 70.5 h: -8.82%

Cc1cc2c(cc1C)C(NCc1nnc3n1CCCCC3)CCCO2 (stereo not given)
cytotoxicity at 70.5 h: -7.63%

Cc1ccc2c(c1)OCCCC2NCc1nnc2n1CCCCC2 (stereo not given)
cytotoxicity at 70.5 h: -6.04%

CCN1CCN(c2ccc(F)cc2C(C)NCc2noc(C)n2)CC1 (stereo not given)
cytotoxicity at 70.5 h: -7.42%

CC(O)CN1CCN(C(=O)CN(C)c2cnccn2)CC1 (stereo not given)
cytotoxicity at 70.5 h: -8.51%

CC(O)CN1CCN(C(=O)CN(C)c2ccc(Cl)cn2)CC1 (stereo not given)
cytotoxicity at 70.5 h: -12.2%

CC(CNC(=O)c1ccc(Cl)cc1I)N1CCCC1 (stereo not given)
cytotoxicity at 70.5 h: -8.19%

Clc1ccc2oc(C3CCN(Cc4cccnc4)CC3)nc2c1
cytotoxicity at 70.5 h: 22.9%

O=C(NCC(=O)N1CCCCC1)c1ccc(Cl)cc1I
cytotoxicity at 70.5 h: -10.6%

N#Cc1cccnc1NCCNC(=O)N1CCCC(C(F)(F)F)C1 (stereo not given)
cytotoxicity at 70.5 h: -11.9%

CN(Cc1ccc(Cl)s1)C(=O)c1cccc(OCC(N)=O)c1
cytotoxicity at 70.5 h: -15.3%

O=C(NCCNc1ncccn1)N1CCCC(C(F)(F)F)C1 (stereo not given)
cytotoxicity at 70.5 h: -9.23%

O=C(Cc1ccc(F)cc1)NCCNCC1CNc2ccnn2C1 (stereo not given)
cytotoxicity at 70.5 h: 16.6%

CC(C(=O)NCc1ccnc(N(C)C)c1)n1cncn1 (stereo not given)
cytotoxicity at 70.5 h: -10.2%

O=C(c1cccnc1-n1cncn1)N1CCN(CC2CC2)CC1
cytotoxicity at 70.5 h: -7.39%

COC(=O)c1ccc(C(=O)NS(=O)(=O)c2cncc(Br)c2)cc1
cytotoxicity at 70.5 h: -3.96%

N#Cc1ccc(C(=O)N2CCn3cc(CN4CCCCC4)nc3C2)cc1
cytotoxicity at 70.5 h: -11.7%

COCC(=O)N1CCc2ncc(Cn3cncn3)n2CC1
cytotoxicity at 70.5 h: -16.6%

C[C@@H]1CN(C(=O)c2cccn2C)C[C@]12CCN(c1ccsc1)C2=O
cytotoxicity at 70.5 h: -13.8%

Cc1nc(NCC2CC2)nc2c1COCC21CCN(C(=O)C(C)(C)C)C1 (stereo not given)
cytotoxicity at 70.5 h: -18.4%

O=C(c1ncccn1)N1CCC[C@]2(C[C@H](OCC3CC3)CO2)C1
cytotoxicity at 70.5 h: -16.3%

O=C(c1ncccn1)N1CCC[C@]2(C[C@@H](OCC3CC3)CO2)C1
cytotoxicity at 70.5 h: -16.4%

O=C(c1ccc(F)c(F)c1)N1CCC[C@]2(C[C@@H](OCC3CC3)CO2)C1
cytotoxicity at 70.5 h: -12.6%

O=C(c1ccncn1)N1CCC[C@]2(C[C@@H](OCC3CC3)CO2)C1
cytotoxicity at 70.5 h: -13.8%

COCC(=O)N1CCC2(CC1)CN(c1cncnc1)C(=O)CO2
cytotoxicity at 70.5 h: -12%

C[C@H]1CN(C(=O)c2ccc[nH]2)C[C@@]12CCN(c1ccsc1)C2=O
cytotoxicity at 70.5 h: -5.02%

COCC(=O)N1CC[C@@H]2O[C@@H](C)C[C@H]2C1
cytotoxicity at 70.5 h: -12.2%

COCC(=O)N1CC[C@H]2O[C@@H](C)C[C@H]2C1
cytotoxicity at 70.5 h: -8.73%

O=C(c1ccnnc1)N1CCn2cc(CN3CCCCC3)nc2C1
cytotoxicity at 70.5 h: -4.84%

CC(=O)N1CCOC2(CCCN(C(=O)c3ccc(Cl)cc3)C2)C1 (stereo not given)
cytotoxicity at 70.5 h: -15.6%

CCC1COC2(CCN(C(=O)c3ccco3)CC2)C1 (stereo not given)
cytotoxicity at 70.5 h: -9.86%

Cc1ccc(C(=O)N2CC[C@H]3[C@H]2CCN3CC2CCOCC2)cn1
cytotoxicity at 70.5 h: -9.27%

Cc1cccc(C(=O)N2CCCn3c(CN4CCCCC4)nnc3C2)c1
cytotoxicity at 70.5 h: -11.1%

Cn1nc(Cn2ccnc2)c2c1CN(C(=O)c1ccc[nH]1)C2
cytotoxicity at 70.5 h: -10.6%

CCN(C)c1ncnc2c1CCN(C(=O)c1cccn1C)CC2
cytotoxicity at 70.5 h: 21%

O=C(c1ccoc1)N1CCCn2nnc(COCC3CC3)c2C1
cytotoxicity at 70.5 h: -4.24%

CNC(=O)[C@@]12CCO[C@@H]1CCN(S(=O)(=O)c1ccc(C)cc1)C2
cytotoxicity at 70.5 h: -4.45%

Cn1cc(C[C@H]2[C@H](N3CCOCC3)CCN2C(=O)c2ccc[nH]2)cn1
cytotoxicity at 70.5 h: -20.8%

O=C(c1cnccn1)N1CC[C@H]2[C@@H]1CCC(=O)N2c1cccnc1
cytotoxicity at 70.5 h: -17.4%

CS(=O)(=O)CC(=O)N1C[C@@H]2CN(Cc3ccoc3)CCO[C@@H]2C1
cytotoxicity at 70.5 h: -12%

Cc1noc([C@@H]2CCO[C@@H]3CCN(Cc4cccs4)C[C@@H]32)n1
cytotoxicity at 70.5 h: 9.6%

Cc1cnc(N2Cc3cnn(Cc4ccc(F)cc4)c3C2)nc1N(C)C
cytotoxicity at 70.5 h: -0.641%

Cc1ccc(NC(=O)CNC(C)CN2CCOCC2)c(F)c1 (stereo not given)
cytotoxicity at 70.5 h: -9.12%

Cc1ccccc1CN(CCN(C)C)Cc1ccc(C(=O)O)cc1
cytotoxicity at 70.5 h: -5.98%

Cn1ncc2c(N3CCS(=O)(=O)CC3)nc(C3CCCC3)nc21
cytotoxicity at 70.5 h: -6%

CC(C)[C@H]1COC(=O)N1Cc1noc(-c2ccccc2)n1
cytotoxicity at 70.5 h: -7.59%

O=C(Nc1cnn(CC(=O)N2CCCO2)c1)c1ccccc1
cytotoxicity at 70.5 h: 8.2%

O=C(NCCn1ccnc1C1CCOC1)c1cccnc1 (stereo not given)
cytotoxicity at 70.5 h: -1.19%

O=S(=O)(NCC1COc2ccccc2C1)N1CCCC1 (stereo not given)
cytotoxicity at 70.5 h: -2.58%

O=C(C1CCS(=O)(=O)CC1)N1CCC(c2ccc(F)cc2)C1 (stereo not given)
cytotoxicity at 70.5 h: 4.45%

CC(=O)c1cnc(NCCCN2CCOCC2)nc1C
cytotoxicity at 70.5 h: 14.7%

Cc1cc(NC2CCN(CC3CCCO3)CC2)n2nc(C)c(C)c2n1 (stereo not given)
cytotoxicity at 70.5 h: 4.66%

CC(C)CN(Cc1ccc(-n2cncn2)cc1)Cc1ccccn1
cytotoxicity at 70.5 h: -10.8%

CSCCC(=O)NCc1cc2n(n1)CCCN(C1CCCCC1)C2
cytotoxicity at 70.5 h: 34.5%

Cc1n[nH]c(C)c1Sc1ccccc1NC(=O)N1CCOCC(O)C1 (stereo not given)
cytotoxicity at 70.5 h: 2.32%

CN(Cc1cccc(CCN)c1)Cc1cccc2ncccc12
cytotoxicity at 70.5 h: -16.2%

CC(C)(O)CCc1cccc(C(=O)N2CCC[C@H]2C(N)=O)c1
cytotoxicity at 70.5 h: 29.2%

COCC[C@]1(O)CCN(c2ncc(Cl)cc2F)C[C@H]1C
cytotoxicity at 70.5 h: -12.3%

O[C@@]1(CNCCCNc2cccnc2)CCCN2CCCC[C@@H]21
cytotoxicity at 70.5 h: -5.62%

COC1CCN(S(=O)(=O)N2CCCC(c3cccc(C(=O)O)c3)C2)CC1 (stereo not given)
cytotoxicity at 70.5 h: -9.91%

COc1ncc(-c2ccc(C(N)=O)cc2)c(OC)n1
cytotoxicity at 70.5 h: -8.59%

CCN1CCc2[nH]cnc2C12CCN(C(=O)CCc1cccs1)CC2
cytotoxicity at 70.5 h: 6.97%

COCc1nc(N(C)CCSc2ccccc2)c2cnn(C)c2n1
cytotoxicity at 70.5 h: -5.78%

Cc1ccc(CN(CCN(C)C)Cc2ncc[nH]2)s1
cytotoxicity at 70.5 h: -5.13%

O[C@H]1CCCC[C@@H]1N1CCN(CCCc2ccc3c(c2)OCO3)CC1
cytotoxicity at 70.5 h: -6.44%

COc1c(F)cc(CN2CCC3(CC2)CN(C)C(=O)O3)cc1Cl
cytotoxicity at 70.5 h: -7.54%

Cc1nc(N2CCC(C(O)c3nccn3C)CC2)c2cccnc2n1 (stereo not given)
cytotoxicity at 70.5 h: 18.9%

COCCN1CCCC(O)(CN2CCN(c3ccncc3C)CC2)C1=O (stereo not given)
cytotoxicity at 70.5 h: 5.87%

CCOC(=O)N1CCC(N2Cc3ncccc3C2=O)CC1
cytotoxicity at 70.5 h: 3.24%

CN(CCn1ccc2ccccc21)C(=O)Cc1nnn[nH]1
cytotoxicity at 70.5 h: 17.9%

O=C1CC(NCc2cnc(-c3cccs3)nc2)CN1c1ccccc1 (stereo not given)
cytotoxicity at 70.5 h: -2.68%

CCN(Cc1nc(C)no1)C(=O)C1CC(=O)N(Cc2cccnc2)C1 (stereo not given)
cytotoxicity at 70.5 h: 17.6%

COc1cccc(CN2CCN(c3noc(C(C)C)n3)CC2)c1F
cytotoxicity at 70.5 h: 1.87%

CCOc1ncccc1Cn1cc(-c2nccn2C)nn1
cytotoxicity at 70.5 h: -10.3%

O=C1CCC(C(=O)N2CCOC(Cc3ccccc3Cl)C2)=NN1 (stereo not given)
cytotoxicity at 70.5 h: -8.63%

c1c(-c2nc(CN3CCOCC3)no2)nnn1CC1CCCCC1
cytotoxicity at 70.5 h: -13.5%

CCn1nc(CC(C)C)cc1C(=O)NCCS(=O)(=O)N(C)C
cytotoxicity at 70.5 h: 3.89%

CC(=O)NCCCc1ncnn1-c1cccc(Cl)c1
cytotoxicity at 70.5 h: 1.57%

CN(C)C(=O)N1CCN(C(=O)Nc2nc(-c3ccccc3)ns2)CC1
cytotoxicity at 70.5 h: -5.92%

O=C1NC2(CCNCC2)CC1c1ccccc1 (stereo not given)
cytotoxicity at 70.5 h: 30.9%

O=C1NC2(CCNCC2)CC1c1ccncc1 (stereo not given)
cytotoxicity at 70.5 h: 10.1%

Cc1cccc(C(=O)N2C[C@@H](C)[C@@]3(CCN(c4ccsc4)C3=O)C2)n1
cytotoxicity at 70.5 h: -16.4%

Cc1ccc(C(=O)N2CC[C@H]3[C@H]2CCN3CC2CCOCC2)cc1F
cytotoxicity at 70.5 h: 3.15%

Cc1ccoc1C(=O)N1Cc2c(Cn3ccnc3)nn(C)c2C1
cytotoxicity at 70.5 h: 20.4%

O=C(c1ccccc1F)N1CCCn2c(CN3CCCCC3)nnc2C1
cytotoxicity at 70.5 h: -6.86%

Cc1cccc(COC[C@@H]2CC[C@H]3[C@H](CCN3C(=O)CC3CC3)O2)n1
cytotoxicity at 70.5 h: -6.33%

O=C(c1cccc(Cl)c1)N1CC[C@H]2[C@H]1CCN2CC1CC1
cytotoxicity at 70.5 h: -9.45%

O=C(c1ccccc1)N1CCCn2c(CN3CCCCC3)nnc2C1
cytotoxicity at 70.5 h: 26.2%

Cn1ccnc1CN1CCC2(CC1)CN(c1cncnc1)C(=O)CO2
cytotoxicity at 70.5 h: -3.27%

Cn1ccnc1CN1CCC2(CC(=O)N(c3ccsc3)C2)C1 (stereo not given)
cytotoxicity at 70.5 h: -8.8%

Cc1ccc(N2CC3(CCN(Cc4nccn4C)C3)CC2=O)s1 (stereo not given)
cytotoxicity at 70.5 h: -14.5%

CCN(C)c1ncnc2c1CCN(CC1CCOC1)CC2 (stereo not given)
cytotoxicity at 70.5 h: -8.27%

Cn1cc(C(=O)N2CC[C@@H]3[C@@H]2CCN3Cc2ccccc2)cn1
cytotoxicity at 70.5 h: -15%

O=C(c1cscn1)N1CCC2(CCN(Cc3nccs3)CC2)C1
cytotoxicity at 70.5 h: -23.5%

CCN1C(=O)CCC12CCCN(Cc1nccs1)C2 (stereo not given)
cytotoxicity at 70.5 h: -13.8%

CN1C(=O)CCC12CCCN(Cc1nccs1)C2 (stereo not given)
cytotoxicity at 70.5 h: 23.1%

CN(Cc1ccccn1)C1CC2(CCN(Cc3ccccn3)CC2)C1
cytotoxicity at 70.5 h: -10.9%

CN(Cc1ccco1)[C@@H]1CN(Cc2ccc(F)cc2)[C@@H]2CCCO[C@H]12
cytotoxicity at 70.5 h: 6.23%

O=C(Cc1ccccn1)N1CCC2(CC1)CN(c1ncccn1)CCO2
cytotoxicity at 70.5 h: -10.3%

COCC1CN(C(=O)Cc2ccccn2)Cc2c1cnn2CC1CC1 (stereo not given)
cytotoxicity at 70.5 h: -13.1%

Cc1noc(C)c1CN1C[C@@H](N(C)Cc2ccco2)[C@H]2OCCC[C@H]21
cytotoxicity at 70.5 h: -6.48%

Cc1noc(C)c1CN1CCN(C)c2ncccc2C1
cytotoxicity at 70.5 h: -5.95%

Cn1ccnc1CN1CCC2(CC(=O)N(c3ccccn3)C2)C1 (stereo not given)
cytotoxicity at 70.5 h: -10.7%

O=C(NCc1ccccn1)[C@@H]1CC[C@@H]2[C@@H](CCN2c2ncc(F)cn2)O1
cytotoxicity at 70.5 h: -11.3%

Cn1cc(C(=O)N2CC[C@@H]3[C@@H]2CCN3Cc2ccncc2)cn1
cytotoxicity at 70.5 h: -12.1%

COc1ccc(CN2C[C@@H]3OCCN(CCN4CCCC4)[C@@H]3C2)cc1
cytotoxicity at 70.5 h: 11.2%

CCCc1ccc(C(=O)N2Cc3c(Cn4ccnc4)nn(C)c3C2)cc1
cytotoxicity at 70.5 h: -8.3%
